Measured values: patent US9657071B2, “IgE peptide vaccine” (NIPPON ZENYAKU KOGYO CO., LTD., priority 2012, dated 2017)

Legend:
cat IgE = experiment: Reactivity of serum of peptide-immunized rabbit with cat IgE recombinant CH3 (ELISA); assay type: in vivo; conditions: 500 μg peptide + complete adjuvant s.c.
Experimental: 2 mL of the 250 μg/mL peptide (a total of 500 μg) used in Example 2 was mixed with an equal amount of a complete adjuvant (a total of 4 mL). Each rabbit was immunized with this mixture by the subcutaneous administration (amount of the peptide: 500 μg) at day 0 and weeks 2, 4, 6, and 8. Blood was collected 5 weeks after the week-8 administration (week 13 counted from day 0). Booster immunization was performed at week 14 counted from day 0, and blood was further collected 2 weeks thereafter (week 16 counted from day 0). Antibody titers in the collected blood were measured by ELISA. The serum of a rabbit that received no peptide was used as a control.
ELISA was performed by the following method: each […] recombinant CH3 solution of dog IgE, human IgE, mouse IgE, dog IgG, and cat IgE was immobilized at a concentration of 100 μL/well (100 ng/well) to a plate. The serum collected from the immunized rabbit was used (×200 to ×102400) as a primary antibody. An enzyme-labeled anti-rabbit IgG antibody (Zymed Laboratories Inc.) was used as a secondary antibody.

[1] = tested on: Dermatophagoides farinae antigen-specific IgE; experiment: Treatment experiment, artificially sensitized dogs: Dermatophagoides farinae antigen-specific IgE (ELISA); assay type: in vivo, dog; conditions: artificially sensitized beagles, s.c. 1 mg five times; one individual (04-95) of 4
Experimental: Dog: 8 artificially sensitized beagles (1 to 8 years old; 4 males and 4 females) were used. The ages and numbers of these 8 dogs were as follows:
Artificial sensitization: 400 μg of a Dermatophagoides farinae antigen (GREER) and 1 mg of an alum adjuvant (LSL) were subcutaneously administered at a 2-week interval, and IgE against the Dermatophagoides farinae antigen was confirmed by ELISA.
Grouping: on the basis of the ELISA results of IgE, the dogs were divided into 2 groups each involving 4 individuals uniformly distributed in terms of their IgE levels and ages.
(§1) Vaccine: the M4-7-11 peptide was used alone without being conjugated.
Administration method: 1 mg (500 μL of 2 mg/mL) per dose was subcutaneously administered five times at 2-week intervals.
Evaluation: serum was collected, and an IgG antibody against human IgE was assayed by ELISA. […] The IgE antibody against Dermatophagoides farinae was evaluated by ELISA.
(§2) The Dermatophagoides farinae antigen was prepared at 5 μg/mL in an immobilization buffer (0.05 M carbonate buffer, pH 9.6), then added at a concentration of 100 μL/well to an ELISA plate, and left overnight at 4° C. […] Then, the measurement was performed using a plate reader (Bio-Rad Laboratories, Inc.; model 680) (dual: measurement: 450 nm, control: 570 nm).

human IgE = experiment: Test using dog (Part 1): IgG antibody against human IgE (ELISA); assay type: in vivo; conditions: healthy beagles 8 months old, s.c. 1 mg five times at 2-week intervals, no adjuvant
Experimental: The peptide (M4-7-11) was concentration-adjusted to 2 mg/mL with saline, dispensed in an amount of 500 μL, and used as a vaccine. […] The vaccine administration method was subcutaneous administration of 1 mg per dose, which was performed five times at 2-week intervals. Another purpose of this test was to study the frequency of administration of the vaccine.
Dog: 4 healthy beagles (8 months old; 2 males and 2 females) were used.
as §1
Administration method: 1 mg (500 μl, of 2 mg/mL) per dose was subcutaneously administered five times at 2-week intervals.
Evaluation: serum was collected approximately once per week, and an IgG antibody against human IgE was assayed by ELISA. Since dog IgE nonspecifically reacts with an anti-dog IgG antibody, human IgE having no nonspecific reaction was used in ELISA.
as §2, with “Human IgE (Athens Research And Technology, Inc.; IgE, human Myeloma Plasma) was” for “The Dermatophagoides farinae antigen was”, “at 1” for “at 5”, “C. The immobilization plate was washed once with PBS-T (0.05%).” for “C.”, “nm). […]” for “nm).”

| Sequence | response of immobilized cat IgE to peptide-administered rabbit serum (cat IgE) | serum concentration of Dermatophagoides farinae antigen-specific IgE [1] | level of the IgG antibody against IgE (human IgE) | level of the IgG antibody against IgE (human IgE; listed as M4-11-17) |
| --- | --- | --- | --- | --- |
| QEKKTSVSASQWYTKHHNNATTSIT (listed as Mus musculus) [MOUSE CH3-4-17-11] | responded |  |  |  |
| KKTSVSASQWYTKHHNNATT (listed as Mus musculus) [M4-7-11] |  | reduction in the serum concentration of IgE was confirmed in one individual | confirmed to elevate | a rise in the level of the IgG antibody against IgE |
